Data as given in US4859664A, “Derivatives of 2,3,4,5,6,7-hexahydro-2,7-methano-1,5-benzoxazonines and -1,4-benzoxazonines, processes for their production and their use as pharmaceuticals” (priority 1986, dated 1989).

How the values were obtained:
hot plate test = type: in vivo, male NMRI mice; details: Mus musculus, sc; plate 54° C.; 30 and 60 min; limits in brackets; read-out: ED50 (50% increase of the reaction time)
Method: (§1) For the pharmacological investigations described in the following, there were used male NMRI mice with a weight of from 15 to 30 g. The animals were kept under usual laboratory conditions, randomised and subjected to a light-dark change with a 12 hour rhythm. They were given a standard feed and water ad libitum up to the commencement of the experiments.
(§2) The test compounds were administered in a volume of 10 ml./kg./body weight per mouse. As carrier, there was used physiological sodium chloride solution or a suspension of 0.5% tragacanth in physiological sodium chloride solution.
The experimental results are given as average values with a mean error of the average value (x±S.E.M.). The ED50 values were calculated according to Litchfield and Wilcoxon (J. Pharmacol. Exp. Ther., 96, 99/1949). The compounds were thereby tested in 4 dosages ([…]). […]
30 and 60 minutes after the subcutaneous administration of the test compounds, the experimental animals were placed on a metal plate, the surface temperature of which was kept constant at 54° C. The time was measured up to the commencement of a pain reaction (standing on the rear paws with licking and rubbing togeth4er of the front paws or jumping). In a preceding test, the average reaction time of the animals was determined from three measurements at intervals of, in each case, 15 minutes. […]

[1] = type: in vivo, male NMRI mice; details: s.c. increasing dosages over 2 days, naloxone i.p.; for % of reacting animals: 10 minutes
Method: (§3) […]. They were given a standard feed and water ad libitum up to the commencement of the experiments.
as §2
2. Development of dependency.
Withdrawal jumps of the mouse (see J. K. Saelens et al., Arch. Int. Pharmacodyn. Ther., 190, 213/1971).
Mice which were dependent upon morphine or other opiates react, when treated with morphine antagonists, with a flight reaction (see F. Huidobro and C. Maggiolo, Arch. Int. Pharmacodyn. Ther., 158, 97/1965); E. L. Way et al., Science, 162, 1290/1968). This flight reaction manifests itself in very vigorous jumping reactions which continue for about 10 minutes. From the number of reacting animals and especially from the jump frequency per animal, there can be deduced the strength of the withdrawal symptoms and thus the degree of dependency upon the test compound. Carrying out of the test:
The test and standard compounds were administered subcutaneously according to the scheme shown in the following Table III in increasing dosages over the course of 2 days.
For the provocation of the withdrawal jumps, the animals received intraperitoneally, 2 hours after the last compound administration, 30 mg./kg. naloxone hydrochloride.
Immediately after the administration of the naloxone, the animals were placed individually in a 5 liter glass beaker. Subsequently, the number of jump movements was recorded during the course of 10 minutes. For evaluation, the number of animals reacting the withdrawal jumps, as well as the average number of jumps per animal, was used.
The animals of the naloxone control group were, up to the administration of naloxone, treated with a 0.9% aqueous solution of sodium chloride (6 animals/dosage group).

[2] = influencing of the amphetamine group toxicity; type: in vivo, male NMRI mice
Method: as §3, §2
3. Influencing of the amphetamine group toxicity.
There was investigated the influence of the test compounds on the mortality of amphetamine-treated, aggregated mice. The dosaging of d-amphetamine was 15 mg./kg., which should permit the recognition not only of a synergism but also of an antagonism towards a sympathomimetic compound. Carrying out the experiment:
30 minutes after the subcutaneous administration of the test substance, the animals received subcutaneously 15 mg./kg. of d-amphetamine sulphate. The number of dead animals was recorded after 2, 4 and 7 hours. For the maintenance of the group size, the dead animals were replaced by untreated animals (6 animals/dosage group).

[3] = testing for ataxia (rotating rod test); type: in vivo, male NMRI mice
Method: as §1, §2
There was used the rotating rod test (see F. Gross et al., Schweiz. Med. Wschr., 85, 305/1955).
5 animals per dosage group were trained to keep themselves on a horizontally rotating rod made of synthetic resin (16 rpm). 40, 80 and 120 minutes after the subcutaneous administration of the test compounds, the animals were again tested. From the number of animals which fell off prematurely, there was determined the disturbance of the movement coordination.

[4] = antidepressive action: reserpine reversal test (tetrabenazine); type: in vivo, male NMRI mice; details: 50 and 25 mg./kg. s.c.
Method: as §1, §2
7. Antidepressive action.
There was used the reserpine reversal test (see G. Zettler, K. Mahler and F. Daniel, Naunyn-Schmiedeberg's Arch. Exp. Path. Pharmacol., 238, 468/1960; ibid. 236, 422/1958). 30 minutes after the subcutaneous administration of the test compounds, the animals (6 animals per dosage group) received subcutaneously 40 mg./kg. tetrabenazine dissolved in 0.5% aqueous ascorbic acid solution. 30 and 60 minutes after the tetrabenazine administration, the animals were placed on a vertical rod (length 90 cm., diameter 1.5 cm., coiled round with 0.2 cm. thick thread) and observed for 30 seconds. Those animals which remained motionless during this time were evaluated as being cataleptic. Previously, the degree of ptosis was assessed.

[5] = 25 mg/kg s.c. + d-amphetamine sulphate 15 mg./kg. s.c.
[6] = 50 mg/kg s.c. + d-amphetamine sulphate 15 mg./kg. s.c.

In the case of `CC1NCCC2(C)CC1c1ccccc1O2` (centres unmarked) [Example 9, 2,3,4,5,6,7-hexahydro-2,6-dimethyl-2,7-methano-1,5-benzoxazonine], the ED50 (hot plate test) is reported as 12 mg/kg, the “average number of jumps/animal/10 minutes” value [1] is reported as 0 and the “% of reacting animals” value [1] is reported as 0%. For the same molecule, the “% of deceased animals after 2 hrs.” value [2, 5] was 16.7%, the “% of deceased animals after 4 hrs.” value [2, 5] was 0% and the “% of deceased animals after 7 hrs.” value [2, 5] was 0%. The “% of deceased animals, total” value [2, 5] was 16.7%, the “% of deceased animals after 2 hrs.” value [2, 6] was 0% and the “% of deceased animals after 4 hrs.” value [2, 6] was 0%. The “% of deceased animals after 7 hrs.” value [2, 6] was 33.3%, the “% of deceased animals, total” value [2, 6] was 33.3% and the “change of the maintenance time in % compared with the control group, after 40 min.” value ([3]; 25 mg/kg s.c.) was -13%. The “change of the maintenance time in % compared with the control group, after 80 min.” value ([3]; 25 mg/kg s.c.) was -17%, the “change of the maintenance time in % compared with the control group, after 120 min.” value ([3]; 25 mg/kg s.c.) was -12% and the “change of the maintenance time in % compared with the control group, after 40 min.” value ([3]; 50 mg/kg s.c.) was 0%. The “change of the maintenance time in % compared with the control group, after 80 min.” value ([3]; 50 mg/kg s.c.) was 0%, the “change of the maintenance time in % compared with the control group, after 120 min.” value ([3]; 50 mg/kg s.c.) was -2% and the “influence on tetrabenazine-induced catalepsy” value [4] was “did not influence”. For the same molecule, the “influence on tetrabenazine-induced ptosis” value [4] was “did not influence”.
In the case of `CC12CCNCC(C1)c1ccccc1O2` (centres unmarked) [Example 6, 2,3,4,5,6,7-hexahydro-2-methyl-2,7-methano-1,5-benzoxazonine], the ED50 (hot plate test) is reported as 13.8 mg/kg, the “average number of jumps/animal/10 minutes” value [1] is reported as 0 and the “% of reacting animals” value [1] is reported as 0%. For the same molecule, the “% of deceased animals after 2 hrs.” value [2, 5] was 0%, the “% of deceased animals after 4 hrs.” value [2, 5] was 0% and the “% of deceased animals after 7 hrs.” value [2, 5] was 16.7%. For the same molecule, the “% of deceased animals, total” value [2, 5] was 16.7%, the “% of deceased animals after 2 hrs.” value [2, 6] was 0% and the “% of deceased animals after 4 hrs.” value [2, 6] was 16.7%. For the same molecule, the “% of deceased animals after 7 hrs.” value [2, 6] was 0%, the “% of deceased animals, total” value [2, 6] was 16.7% and the “change of the maintenance time in % compared with the control group, after 40 min.” value ([3]; 25 mg/kg s.c.) was 0%. The “change of the maintenance time in % compared with the control group, after 80 min.” value ([3]; 25 mg/kg s.c.) was -8%, the “change of the maintenance time in % compared with the control group, after 120 min.” value ([3]; 25 mg/kg s.c.) was 0% and the “change of the maintenance time in % compared with the control group, after 40 min.” value ([3]; 50 mg/kg s.c.) was -17%. For the same molecule, the “change of the maintenance time in % compared with the control group, after 80 min.” value ([3]; 50 mg/kg s.c.) was 0%, the “change of the maintenance time in % compared with the control group, after 120 min.” value ([3]; 50 mg/kg s.c.) was -8% and the “influence on tetrabenazine-induced catalepsy” value [4] was “did not influence”. For the same molecule, the “influence on tetrabenazine-induced ptosis” value [4] was “did not influence”.
